The results in this text go back to ChEMBL document CHEMBL1129437, “New purines and purine analogs as modulators of multidrug resistance” (J Med Chem, 1996).

Assay [1] deals with Mus musculus. Nature of the assay: Ratio of survival time of mice treated with VCR (0.25 mg/kg ip)+modulator given at the optimal dose of 100 mg/kg po/survival time of mice treated with VCR alone. It is filed as functional.
For assay [2], the system named is Mus musculus. Nature of the assay: Ratio of survival time of mice treated with VCR (0.25 mg/kg ip)+modulator given at the optimal dose of 50 mg/kg po/survival time of mice treated with VCR alone. It is filed as functional.
In assay [3] the test system is Mus musculus. Nature of the assay: Ratio of survival time of mice treated with VCR (0.25 mg/kg ip)+modulator given at the optimal dose of 100 mg/kg po/survival time of mice treated with VCR alone. Format: functional.
In assay [4] the test system is Mus musculus. Kind of assay: Ratio of survival time of mice treated with VCR (0.25 mg/kg ip)+modulator given at the optimal dose of 200 mg/kg po/survival time of mice treated with VCR alone. Format: functional.

Description for KB: Percent of cell viability of KB-A1 human epidermoid carcinoma remaining after inoculation with the modulator alone
Description for P388: Percent of cell viability of P388/VCR-20 murine leukemia cells remaining after inoculation with the modulator alone

For `C=CCNc1nc(N2CCN(C(c3ccc(F)cc3)c3ccc(F)cc3)CC2)c2ncn(CC=C)c2n1`, the Viability with P388 is given as 98%; in the assay on KB, 73%.

In the case of `C=CCNc1nc(N2CCC(NCC3Cc4ccccc4Cc4ccccc43)CC2)nc2c1ncn2CC=C` (stereo unspecified), the Viability came to 98% with P388 and 104% with KB. In addition, in the assay with Mus musculus [1], the T/V amounted to 1.42.

In the case of `C=CCNc1nc(N2CCC(NCC3c4ccccc4CCc4cc(OC)c(OC)c(OC)c43)CC2)nc2c1ncn2CC=C` (stereo unspecified), the figures for the Viability in the assay with P388 and in the assay on KB were 96% and 86%, respectively. Further, in the assay on Mus musculus [1], the T/V is reported as 1.16.

Turning to `C=CCNc1nc(N2CCC(NCC(c3ccc(F)cc3)c3ccc(F)cc3)CC2)c2ncn(CC=C)c2n1`, the Viability was found to be 108% in the assay with P388 and 106% in the assay with KB.

In the case of `C=CCNc1nc(N2CCC(NC3c4ccccc4CCc4ccccc43)CC2)nc2c1ncn2CC=C`, the Viability in the assay with P388 and in the assay on KB was 111% each time.

For the compound `C=CCNc1nc(N2CCC(NCC3c4ccccc4COc4ccccc43)CC2)c2ncn(CC=C)c2n1` (stereo unspecified), the Viability is 91% in the assay on P388 and 110% with KB.

Consider `C=CCNc1nc(N2CCC(NCC3c4ccccc4CCc4ccccc43)CC2)nc2c1ncn2CCC`, for which the Viability in the assay with P388 came out at 102%; in the assay on KB it was 107%. Besides, the T/V in the assay with Mus musculus [1] was found to be 1.31.

With `C=CCNc1nc(N2CCC(NCC3c4ccccc4CCc4cc(OC)ccc43)CC2)nc2c1cnn2CC=C` (stereo unspecified), the Viability in the assay on P388 stood at 90%; with KB it was 103%. Further, the T/V with Mus musculus [1] worked out at 1.18.

On to `C=CCNc1nc(N2CCC(NCC(c3ccc(F)cc3)c3ccc(F)cc3)CC2)nc2c1ncn2CC=C`, for which the Viability with P388 is 95%; in the assay with KB, 120%. The T/V in the assay on Mus musculus [1] stood at 1.49.

With `C=CCNc1nc(N2CCC(NCC3c4ccccc4NC(=O)c4ccccc43)CC2)nc2c1ncn2CC=C` (stereo unspecified), the Viability with P388 worked out at 106%; in the assay with KB, 126%. Moreover, in the assay with Mus musculus [1], the T/V came to 1.13.

Take `C=CCNc1nc(N2CCC(NCC3c4ccccc4C=Cc4ccccc43)CC2)nc2c1ncn2CC=C`: the T/V with Mus musculus [2] came out at 1.21. Also, the Viability in the assay on P388 is reported as 111%; with KB, 110%.

For `C=CCNc1nc(N2CCC(NCC3c4ccccc4CCc4ccccc43)CC2)c2ncn(CC=C)c2n1`, the values for the Viability with P388 and in the assay with KB were 112% and 95%, respectively. Besides, in the assay on Mus musculus [1], the T/V is 1.19.

On to `C=CCNc1nc(N2CCC(NCC3CCCCc4ccccc43)CC2)nc2c1ncn2CC=C` (stereo unspecified), for which the T/V with Mus musculus [2] is listed as 1.2. Moreover, the Viability in the assay on P388 is recorded as 123%; in the assay on KB, 122%.

As to `C=CCNc1nc(N2CCC(NCC(c3ccccc3)c3ccccc3)CC2)nc2c1ncn2CC=C`, the Viability in the assay with P388 is 93%; with KB it was 115%. Also, the T/V in the assay with Mus musculus [1] is 1.3.

Take `C=CCn1cnc2c(NCCC)nc(N3CCC(NCC4c5ccccc5CCc5ccccc54)CC3)nc21`: the T/V in the assay on Mus musculus [2] amounted to 1.38. Also, the Viability with P388 amounted to 103%; in the assay with KB, 112%.

For the compound `C=CCNc1nc(N2CCC(NC3c4ccccc4N(C)S(=O)(=O)c4cc(Cl)ccc43)CC2)nc2c1ncn2CC=C` (stereo in doubt; 11), the Viability with P388 is given as 146%; with KB it was 60%. Also, the T/V in the assay with Mus musculus [1] (100 mg/kg) came out at 1.27.

In the case of `C=CCNc1nc(N2CCC(NCc3cccc4ccccc34)CC2)nc2c1ncn2CC=C`, the values for the Viability with P388 and with KB were 80% and 110%, respectively. For the same compound, the T/V in the assay on Mus musculus [1] is on record as 1.33.

For the compound `C=CCNc1nc(N2CCC(NCC3c4ccccc4CCc4ccccc43)CC2)nc2c1cnn2CC=C`, the Viability in the assay on P388 came to 74%; in the assay on KB, 132%. The T/V in the assay with Mus musculus [1] came to 1.31.

For `C=CCNc1nc(N2CCC(NCC3c4ccccc4COc4ccccc43)CC2)nc2c1ncn2CC=C` (stereo unspecified), the Viability is 95% with P388 and 108% with KB. Moreover, in the assay on Mus musculus [1], the T/V is reported as 1.36.

As for `C=CCNc1nc(N2CCC(NCC3c4ccccc4C=Cc4ccccc43)CC2)c2ncn(CC=C)c2n1`, the Viability in the assay on P388 came out at 119%; in the assay with KB, 102%. In the assay with Mus musculus [1], the T/V is reported as 1.17.

In the case of `C=CCNc1nc(N2CCC(NCC3c4ccccc4CCc4cc(OC)ccc43)CC2)nc2c1ncn2CC=C` (stereo unspecified), the Viability turned out to be 114% in the assay with P388 and 108% in the assay with KB. Also, in the assay with Mus musculus [1], the T/V was 1.54.

Take `C=CCn1ncc2c(NCCC)nc(N3CCC(NCC4c5ccccc5CCc5cc(OC)ccc54)CC3)nc21` (stereo unspecified): the values for the Viability with P388 and in the assay on KB were 98% and 86%, respectively. The T/V with Mus musculus [1] worked out at 1.3.

Turning to `C=CCNc1nc(N2CCC(NCC3c4ccccc4CCc4ccccc43)CC2)nc2c1ccn2CC=C`, the Viability with P388 is reported as 126%; with KB it was 86%. In addition, the T/V with Mus musculus [1] is 1.24.

In the case of `C=CCNc1nc(N2CCC(NCC3c4ccccc4CCc4cc(OC)ccc43)CC2)c2ncn(CC=C)c2n1` (stereo unspecified), the Viability in the assay on P388 is 131%; in the assay with KB it was 91%. In the assay with Mus musculus [1], the T/V is 1.06.

Regarding `C=CCNc1nc(N2CCC(NCC3c4ccccc4CCc4ccccc43)CC2)nc2c1nnn2CC=C`, the Viability with P388 was found to be 83%; in the assay with KB, 84%. The T/V with Mus musculus [1] was found to be 1.17.

Take `C=CCNc1nc(N2CCC(NCC3c4ccccc4N(CCC)S(=O)(=O)c4ccccc43)CC2)nc2c1ncn2CC=C` (stereo unspecified): the values for the Viability with P388 and with KB were 96% and 145%, respectively. For the same compound, in the assay on Mus musculus [1], the T/V is on record as 1.21.

`C=CCNc1nc(N2CCC(NC3c4ccccc4CCc4ccccc43)CC2)c2ncn(CC=C)c2n1`: the Viability with P388 is 120%; in the assay with KB, 119%.

Regarding `C=CCNc1nc(N2CCC(NCC(c3ccccc3)(c3ccccc3)c3ccccc3)CC2)nc2c1ncn2CC=C`, the Viability is reported as 119% in the assay with P388 and 127% in the assay on KB. For the same compound, the T/V in the assay with Mus musculus [1] was 1.3.

On to `C=CCNc1nc(N2CCN(C(c3ccc(F)cc3)c3ccc(F)cc3)CC2)nc2ncn(CC=C)c12`, for which the results for the Viability with P388 and in the assay on KB were 97% and 104%, respectively.

Regarding `C=CCNc1nc(N2CCC(NCC3c4ccccc4N(C)S(=O)(=O)c4cc(Cl)ccc43)CC2)nc2c1ncn2CC=C` (stereo unspecified), the Viability in the assay with P388 worked out at 70%; in the assay on KB, 121%. Besides, in the assay with Mus musculus [1], the T/V worked out at 1.13.

As for `C=CCNc1nc(N2CCC(NC3c4ccccc4N(C)S(=O)(=O)c4cc(Cl)ccc43)CC2)nc2c1ncn2CC=C` (stereo in doubt; 12), the Viability in the assay on P388 was determined as 135%; in the assay on KB it was 64%. Moreover, the T/V in the assay on Mus musculus [1] (100 mg/kg) came out at 1.11.

With `C=CCNc1nc(N2CCC(NCc3cccc4ccccc34)CC2)c2ncn(CC=C)c2n1`, the Viability came out at 104% in the assay with P388 and 106% in the assay on KB. Besides, in the assay with Mus musculus [1], the T/V was found to be 1.31.

As to `CCCNc1nc(N2CCC(NCC3c4ccccc4CCc4ccccc43)CC2)nc2c1ncn2CCC`, the Viability is recorded as 98% with P388 and 127% in the assay on KB. In the assay on Mus musculus [1], the T/V was 1.57.

`C=CCNc1nc(N2CCC(NCC3c4ccccc4N(C)S(=O)(=O)c4cc(Cl)ccc43)CC2)c2ncn(CC=C)c2n1` (stereo unspecified): the T/V with Mus musculus [3] stood at 1.03. Moreover, the Viability is on record as 89% in the assay on P388 and 141% with KB.

For `C=CCNc1nc(N2CCN(C(c3ccc(F)cc3)c3ccc(F)cc3)CC2)nc2c1ncn2CC=C`, the Viability is on record as 99% in the assay with P388 and 103% in the assay on KB.

`C=CCNc1nc(NCC=C)nc(N2CCC(NCC(c3ccc(F)cc3)c3ccc(F)cc3)CC2)n1`: the Viability is 93% with P388 and 111% in the assay on KB. Further, the T/V in the assay on Mus musculus [4] was determined as 1.19.
